According to patent US12215173B2, “Kappa opioid receptor peptide amide ligands” (priority 2019, dated 2025):
Read-outs that look alike come from different tables or passages of the source. Square brackets hold non-standard residues; d marks the D form. Peptide text beside a SMILES is read from it. * marks the point of attachment. Piperidin1yl(4-NH2,4-CO2Me) = COC(=O)C1(N)CCN(*)CC1; dAla(cPr) = N[C@H](CC1CC1)C(=O)O

Legend:
[1] = target: Opioid Kappa Receptor (recombinant human, HEK293 cells) (Homo sapiens (Human), UniProt P41145); assay: cell-based
[2] = target: recombinant human delta (DOR) opioid receptor (Homo sapiens (Human), UniProt P41143); assay: Opioid receptor radioligand binding assay, DOR
[3] = target: recombinant human mu (MOR) opioid receptor (Homo sapiens (Human), UniProt P35372); assay: Opioid receptor radioligand binding assay, MOR
[4] = target: recombinant human kappa (KOR) opioid receptor (Homo sapiens (Human), UniProt P41145); assay: biochemical; assay type: binding
[5] = HEK293 cell membranes, 0.5 nM [3H]diprenorphine
[6] = HEK293 cell membranes, 0.5 nM [3H]DADLE, read-out: DOR, IC50
[7] = HEK293 cell membranes, 0.5 nM [3H]DAMGO, read-out: MOR, IC50

Chain of recombinant human delta (DOR) opioid receptor (P41143 whole entry, looked up): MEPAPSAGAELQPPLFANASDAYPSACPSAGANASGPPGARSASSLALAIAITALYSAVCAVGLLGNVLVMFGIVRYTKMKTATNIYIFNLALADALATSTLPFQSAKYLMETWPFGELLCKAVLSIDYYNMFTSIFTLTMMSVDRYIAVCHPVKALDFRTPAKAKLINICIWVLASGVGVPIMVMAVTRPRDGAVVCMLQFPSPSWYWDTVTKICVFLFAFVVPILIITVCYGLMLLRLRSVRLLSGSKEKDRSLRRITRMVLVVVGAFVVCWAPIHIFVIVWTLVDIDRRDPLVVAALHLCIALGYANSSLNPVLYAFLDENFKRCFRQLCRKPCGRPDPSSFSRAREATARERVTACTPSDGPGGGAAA

| SMILES | EC50 ([1]; read-out: EC50) [nM] | IC50 [2] [µM] | IC50 [3] [µM] | IC50 [4, 5] [nM] | IC50 [2, 6] [µM] | IC50 [3, 7] [µM] | IC50 ([3]; read-out: MOR, IC50) [µM] | EC50 [1] [nM] | IC50 [4] [nM] |
| --- | --- | --- | --- | --- | --- | --- | --- | --- | --- |
| CCOC(=O)C1(N)CCN(C(=O)[C@@H](CCCCN)NC(=O)[C@@H](CC(C)C)NC(=O)[C@@H](Cc2ccccc2)NC(=O)[C@H](N)Cc2ccccc2)C1 (stereo partly drawn) [Compound 35] | 11.7 | > 10 | 8.18 | 0.19 | – | – | – | – | – |
| CC(C)C[C@@H](NC(=O)[C@@H](Cc1ccccc1)NC(=O)[C@H](N)Cc1ccccc1)C(=O)N[C@H](CCCCN)C(=O)NCc1ccncc1 [Compound 13-53] | 12.6 | > 10 | 8.75 | 2.01 | – | – | – | – | – |
| CC(C)C[C@@H](NC(=O)[C@@H](Cc1ccccc1)NC(=O)[C@H](N)Cc1ccccc1)C(=O)N[C@H](CCCCN)C(=O)NCc1ccnc(C(=O)O)c1 [Compound 13-8] | 14.7 | – | – | 6.04 | > 10 | > 10 | – | – | – |
| CC(C)C[C@@H](NC(=O)[C@@H](Cc1ccccc1)NC(=O)[C@H](N)Cc1ccccc1)C(=O)N[C@H](CCCCN)C(=O)N1CCOCCOCCOCC1 [Compound 13-15] | 51.5 | – | – | 0.41 | > 10 | > 10 | – | – | – |
| CC(C)C[C@@H](NC(=O)[C@@H](Cc1ccccc1)NC(=O)[C@H](N)Cc1ccccc1)C(=O)N[C@H](CCCCN)C(=O)NCc1cc[nH]c(=O)c1 [Compound 13-9] | 18.1 | – | – | 0.41 | > 10 | > 10 | – | – | – |
| CC(C)C[C@@H](NC(=O)[C@@H](Cc1ccccc1)NC(=O)[C@H](N)Cc1ccccc1)C(=O)N[C@H](CCCCN)C(=O)N1CCC(N)(C(=O)OCCN)C1 (stereo partly drawn) [Compound 55] | 9.36 | – | – | 0.45 | > 10 | 8.53 | – | – | – |
| COC(=O)C1(N)CCN(C(=O)CNC(=O)[C@@H](CCCCN)NC(=O)[C@@H](CC(C)C)NC(=O)[C@@H](Cc2ccccc2)NC(=O)[C@H](N)Cc2ccccc2)CC1 [Compound 66] (H-[dF][dF][dL][dK]G-{Piperidin1yl(4-NH2,4-CO2Me)}) | 12.9 | > 10 | 0.307 | 20.9 | – | – | – | – | – |
| COCCNC(=O)[C@@H](CCCCN)NC(=O)[C@@H](CC(C)C)NC(=O)[C@@H](Cc1ccccc1)NC(=O)[C@H](N)Cc1ccccc1 [Compound 13-2] | 8.31 | – | – | 1.37 | > 10 | > 10 | – | – | – |
| CCOC(=O)C(N)C(=O)NC1CCN(C(=O)[C@@H](CCCCN)NC(=O)[C@@H](CC(C)C)NC(=O)[C@@H](Cc2ccccc2)NC(=O)[C@H](N)Cc2ccccc2)CC1 (stereo partly drawn) [Compound 13-39] | 14.7 | – | – | 0.23 | > 10 | > 10 | – | – | – |
| CC(C)C[C@@H](NC(=O)[C@@H](Cc1ccccc1)NC(=O)[C@H](N)Cc1ccccc1)C(=O)N[C@H](CCCCN)C(=O)N1CCC(NC(=O)C(=O)O)CC1 [Compound 13-30] | 4.77 | – | – | 0.15 | > 10 | > 10 | – | – | – |
| CC(C)C[C@@H](NC(=O)[C@@H](Cc1ccccc1)NC(=O)[C@H](N)Cc1ccccc1)C(=O)N[C@H](CCCCN)C(=O)N1CCC(NC(=O)/C=C/C(=O)O)CC1 [Compound 13-20] | 18 | – | – | 1.44 | > 10 | > 10 | – | – | – |
| CC(C)C[C@@H](NC(=O)[C@@H](Cc1ccccc1)NC(=O)[C@H](N)Cc1ccccc1)C(=O)N[C@H](CCCCN)C(=O)N1CCC(N)(C(=O)OC2CC2)C1 (stereo partly drawn) [Compound 40] | 11.9 | > 1 | > 10 | 0.41 | – | – | – | – | – |
| CC(C)C[C@@H](NC(=O)[C@@H](Cc1ccccc1)NC(=O)[C@H](N)Cc1ccccc1)C(=O)N[C@H](CCCCN)C(=O)NCCOCCOCCO [Compound 13-52] | 12.1 | – | – | 1.02 | > 10 | > 10 | – | – | – |
| CC(C)C[C@@H](NC(=O)[C@@H](Cc1ccccc1)NC(=O)[C@H](N)Cc1ccccc1)C(=O)N[C@H](CCCCN)C(=O)N1CCC2(CC1)NC(=O)NC2=O [Compound 71] | 5.4 | – | – | 0.16 | > 10 | – | > 10 | – | – |
| CC(C)C[C@@H](NC(=O)[C@@H](Cc1ccccc1)NC(=O)[C@H](N)Cc1ccccc1)C(=O)N[C@H](CCCCN)C(=O)N1CCN(C(=O)NC2CC2)CC1 [Compound 13-48] | 5.69 | > 10 | > 10 | 0.36 | – | – | – | – | – |
| CNC(=O)N1CCN(C(=O)[C@@H](CCCCN)NC(=O)[C@@H](CC(C)C)NC(=O)[C@@H](Cc2ccccc2)NC(=O)[C@H](N)Cc2ccccc2)CC1 [Compound 13-58] | 10.8 | – | – | 0.29 | > 10 | > 10 | – | – | – |
| CC(C)C[C@@H](NC(=O)[C@@H](Cc1ccccc1)NC(=O)[C@H](N)Cc1ccccc1)C(=O)N[C@H](CCCCN)C(=O)N1CCC(NC(=O)CC[C@H](N)C(N)=O)CC1 [Compound 13-41] | 9.12 | – | – | 0.21 | > 10 | 8.22 | – | – | – |

| SMILES | EC50 ([1]; read-out: EC50) [nM] | IC50 [2] [µM] | IC50 [3] [µM] | IC50 [4, 5] [nM] | IC50 [2, 6] [µM] | IC50 [3, 7] [µM] | IC50 ([3]; read-out: MOR, IC50) [µM] | EC50 [1] [nM] | IC50 [4] [nM] |
| --- | --- | --- | --- | --- | --- | --- | --- | --- | --- |
| CC(C)C[C@@H](NC(=O)[C@@H](Cc1ccccc1)NC(=O)[C@H](N)Cc1ccccc1)C(=O)N[C@H](CCCCN)C(=O)N1CCC(NC(=O)C[C@H](N)C(N)=O)CC1 [Compound 13-38] | 6.08 | > 10 | > 10 | 0.3 | – | – | – | – | – |
| COC(=O)[C@@H](N)CNC(=O)[C@@H](CCCCN)NC(=O)[C@@H](CC(C)C)NC(=O)[C@@H](Cc1ccccc1)NC(=O)[C@H](N)Cc1ccccc1 [Compound 13-12] | 7.07 | – | – | 6.6 | > 10 | > 10 | – | – | – |
| COCCOC(=O)C1(N)CCN(C(=O)[C@@H](CCCCN)NC(=O)[C@@H](CC(C)C)NC(=O)[C@@H](Cc2ccccc2)NC(=O)[C@H](N)Cc2ccccc2)C1 (stereo partly drawn) [Compound 45] | 30.2 | – | – | 0.33 | > 10 | 7.37 | – | – | – |
| CCNC(=O)C(=O)N1CCC(NC(=O)[C@@H](CCCCN)NC(=O)[C@@H](CC(C)C)NC(=O)[C@@H](Cc2ccccc2)NC(=O)[C@H](N)Cc2ccccc2)CC1 [Compound 13-36] | 37.7 | – | – | 0.49 | > 10 | > 10 | – | – | – |
| CNC(=O)C(=O)NC1CCN(C(=O)[C@@H](CCCCN)NC(=O)[C@@H](CC(C)C)NC(=O)[C@@H](Cc2ccccc2)NC(=O)[C@H](N)Cc2ccccc2)CC1 [Compound 13-28] | 20.8 | – | – | 0.26 | > 10 | > 10 | – | – | – |
| CC(C)C[C@@H](NC(=O)[C@@H](Cc1ccccc1)NC(=O)[C@H](N)Cc1ccccc1)C(=O)N[C@H](CCCCN)C(=O)NCc1ccc(O)c(O)c1 [Compound 13-10] | 23.1 | – | – | 0.67 | > 10 | > 10 | – | – | – |
| CC(C)C[C@@H](NC(=O)[C@@H](Cc1ccccc1)NC(=O)[C@H](N)Cc1ccccc1)C(=O)N[C@H](CCCCN)C(=O)N1CCC(NC(=O)C(=O)N(C)C)CC1 [Compound 13-16] | 19.4 | – | – | 0.37 | 2.41 | 0.215 | – | – | – |
| COC(=O)/C=C/C(=O)N1CCN(C(=O)[C@@H](CCCCN)NC(=O)[C@@H](CC(C)C)NC(=O)[C@@H](Cc2ccccc2)NC(=O)[C@H](N)Cc2ccccc2)CC1 [Compound 13-24] | 31.5 | – | – | 0.52 | > 10 | 7.99 | – | – | – |
| CCNC(=O)C(=O)NC1CCN(C(=O)[C@@H](CCCCN)NC(=O)[C@@H](CC(C)C)NC(=O)[C@@H](Cc2ccccc2)NC(=O)[C@H](N)Cc2ccccc2)CC1 [Compound 13-35] | 10.8 | – | – | 0.31 | > 10 | 8.43 | – | – | – |
| CC(C)C[C@@H](NC(=O)[C@@H](Cc1ccccc1)NC(=O)[C@H](N)Cc1ccccc1)C(=O)N[C@H](CCCCN)C(=O)NCc1cccnc1C(=O)O [Compound 13-7] | 24.7 | > 10 | > 10 | 11.4 | – | – | – | – | – |
| COC(=O)/C=C/C(=O)N1CCC(NC(=O)[C@@H](CCCCN)NC(=O)[C@@H](CC(C)C)NC(=O)[C@@H](Cc2ccccc2)NC(=O)[C@H](N)Cc2ccccc2)CC1 [Compound 13-18] | 39.3 | – | – | 2 | > 10 | > 10 | – | – | – |
| CC(C)C[C@@H](NC(=O)[C@@H](Cc1ccccc1)NC(=O)[C@H](N)Cc1ccccc1)C(=O)N[C@H](CCCCN)C(=O)N(C)C[C@H](O)[C@@H](O)[C@H](O)[C@H](O)CO [Compound 13-50] | 12.2 | – | – | 0.37 | > 10 | 1.11 | – | – | – |
| COC(=O)C1(N)CCN(C(=O)[C@@H](CCCNC(=N)N)NC(=O)[C@@H](CC2CC2)NC(=O)[C@@H](Cc2ccccc2)NC(=O)[C@H](N)Cc2ccccc2)CC1 [Compound 126] (H-[dF][dF][dAla(cPr)][dR]-{Piperidin1yl(4-NH2,4-CO2Me)}) | 6.81 | – | – | 0.36 | > 10 | 3.03 | – | – | – |
| CC(C)C[C@@H](NC(=O)[C@@H](Cc1ccccc1)NC(=O)[C@H](N)Cc1ccccc1)C(=O)N[C@H](CCCCN)C(=O)NCCOCCO [Compound 13-51] | 5.15 | – | – | 0.27 | > 10 | 0.349 | – | – | – |
| CC(C)C[C@@H](NC(=O)[C@@H](Cc1ccccc1)NC(=O)[C@H](N)Cc1ccccc1)C(=O)N[C@H](CCCCN)C(=O)NCc1ccc2c(c1)OCO2 [Compound 13-1] | 42.2 | > 10 | 2.08 | 1.96 | – | – | – | – | – |
| CCOC(=O)N1CCN(C(=O)[C@@H](CCCCN)NC(=O)[C@@H](CC(C)C)NC(=O)[C@@H](Cc2ccccc2)NC(=O)[C@H](N)Cc2ccccc2)CC1 [Compound 13-47] | – | – | – | – | > 10 | > 10 | – | 4.84 | 0.27 |
